Assay results as given in US10273226B2, “Pyrazolyl-heteroarylamides as pesticides” (Bayer Animal Health GmbH, priority 2014, dated 2019).

Legend:
Format in all cases: in vivo
Ctenocephalides felis [1] = assay: Ctenocephalides felis in vitro contact test with adult cat fleas; settings: application rate 5 μg/cm^2 (500 g/ha); after 48 h; fleas dead or moribund
Method in brief: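 Test tubes were coated with 250 μl acetone solution of compound, giving 5 μg/cm^2 at 900 ppm, then dried and stocked with 5-10 adult cat fleas. After 48 h at room temperature and ambient humidity, dead or moribund fleas were counted; efficacy given as % (100% = all dead or moribund).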

Rhipicephalus sanguineus = Rhipicephalus sanguineus in vitro contact test with adult brown dog ticks; settings: application rate 5 μg/cm^2 (500 g/ha); after 48 h; ticks dead or moribund
Method in brief: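 Test tubes (25 ml) were coated by dissolving active ingredient in acetone p.a., diluting to the required concentration, and spreading 250 μl over the inner walls and base on an orbital shaker at 30 rpm for 2 h. Once dry, 5-10 adult Rhipicephalus sanguineus were added, and tubes were capped with perforated lids and kept horizontal in darkness at room temperature. At 48 h, ticks were knocked down and heated at 45-50° C. for up to 5 min. Those unable to climb away were counted dead or moribund, and efficacy ran from 0% to 100%.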

Boophilus microplus = Boophilus microplus injection test; settings: application rate 20 μg/animal; injection into abdomen; assessed after 7 days
Method in brief: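 Compound dissolved in DMSO (10 mg per 0.5 ml, then diluted with DMSO to test concentration); 1 μl injected into the abdomen of 5 engorged adult female ticks, which are then held in a climate-controlled room. Efficacy judged after 7 days by laying of fertile eggs.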

Ctenocephalides felis [2] = assay: Ctenocephalides felis oral test; settings: application rate 100 ppm in citrated cattle blood; after 2 days
Method in brief: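 About 20 unfed adult cat fleas fed through a parafilm membrane on citrated cattle blood containing compound, dosed from a DMSO stock. Kill in % scored after 2 days; 100% means all fleas dead.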

Lucilia cuprina = Lucilia cuprina test; settings: application rate 100 ppm; L1 larvae; after 2 days
Method in brief: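 About 20 L1 larvae placed in vessels with minced horsemeat treated with compound (DMSO concentrate diluted in water) at the desired concentration. Kill (%) scored after 2 days; 100% means all larvae dead, 0% none.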

Musca domestica = Musca domestica test; settings: application rate 100 ppm; adult houseflies; after 2 days
Method: (§1) Solvent: dimethyl sulphoxide
To produce an appropriate active ingredient formulation, 10 mg of active ingredient are mixed with 0.5 ml of dimethyl sulphoxide, and the concentrate is diluted with water to the desired concentration.
Vessels containing a sponge treated with sugar solution and the active ingredient formulation of the desired concentration are populated with 10 adult houseflies (Musca domestica).
After 2 days, the kill in % is determined. 100% means that all of the flies have been killed; 0% means that none of the flies have been killed.

Myzus persicae = Myzus persicae spray test; settings: application rate 100 g/ha; after 6 days
Method: Myzus persicae—Spray Test
To produce an appropriate active ingredient formulation, 1 part by weight of active ingredient is dissolved using the specified parts by weight of solvent and made up with water containing an emulsifier concentration of 1000 ppm until the desired concentration is attained. To produce further test concentrations, the preparation is diluted with emulsifier-containing water.
Discs of Chinese cabbage leaves (Brassica pekinensis) infested by all stages of the green peach aphid (Myzus persicae) are sprayed with an active ingredient formulation of the desired concentration.
After 6 days, efficacy in % is determined. 100% means that all the aphids have been killed; 0% means that none of the aphids have been killed.

Phaedon cochleariae = Phaedon cochleariae spray test; settings: application rate 100 g/ha; larvae; after 7 days
Method in brief: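 Chinese cabbage leaf discs were sprayed with the compound formulated in water containing 1000 ppm emulsifier. After drying, they were infested with mustard beetle larvae. Efficacy was scored as % larvae killed after 7 days (100% = all dead, 0% = none).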

Spodoptera frugiperda = Spodoptera frugiperda spray test; settings: application rate 100 g/ha; caterpillars; after 7 days
Method in brief: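 Maize leaf discs were sprayed with compound formulated in solvent plus water containing 1000 ppm emulsifier, dried, then infested with Spodoptera frugiperda caterpillars. Efficacy in % mortality was scored after 7 days (100% all killed, 0% none).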

Tetranychus urticae = Tetranychus urticae spray test, OP-resistant; settings: application rate 100 g/ha; after 6 days
Method in brief: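 Bean leaf discs (Phaseolus vulgaris) carrying all stages of OP-resistant mites are sprayed with compound formulated in solvent and emulsifier-containing water. Efficacy (% mites killed) is scored after 6 days.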

[3] = tested on: Boophilus microplus Parkhurst strain, SP-resistant; assay: Boophilus microplus dip test; settings: application rate 100 ppm, assessed after 7 days
Method: Boophilus microplus—Dip Test
Test animals: cattle ticks (Boophilus microplus) Parkhurst strain, SP-resistant
as §1
10 mg of active ingredient are dissolved in 0.5 ml of dimethyl sulphoxide. For the purpose of producing a suitable formulation, the active ingredient solution is diluted with water to the concentration desired in each case.
This active ingredient formulation is pipetted into tubes. 8-10 adult engorged female cattle ticks (Boophilus microplus) are transferred into a further tube with holes. The tube is immersed into the active ingredient formulation, and all the ticks are completely wetted. After the liquid has run out, the ticks are transferred on filter discs into plastic dishes and stored in a climate-controlled room.
Efficacy is assessed after 7 days by laying of fertile eggs. Eggs which are not visibly fertile are stored in a climate-controlled cabinet until the larvae hatch after about 42 days. An efficacy of 100% means that none of the ticks has laid any fertile eggs; 0% means that all the eggs are fertile.

SMILES | efficacy (Ctenocephalides felis [1]) | efficacy (Rhipicephalus sanguineus) | efficacy (laying of fertile eggs) (Boophilus microplus) | efficacy (kill in %) (Ctenocephalides felis [2]) | efficacy (kill in %) (Lucilia cuprina) | efficacy (kill in %) (Musca domestica) | efficacy (Myzus persicae) | efficacy (Phaedon cochleariae) | efficacy (Spodoptera frugiperda) | efficacy (Tetranychus urticae) | efficacy (laying of fertile eggs) [3]
Cn1nc(C(F)(F)C(F)(F)F)c(C(F)(F)F)c1-n1cc(-c2cccc(NC(=O)c3ccc(F)cc3)c2)cn1 [Example 1-003] | 100% | 100% | 100% | 100% | 100% | 100% | 90% | 100% | 100% | 100% | 
Cn1nc(C(F)(F)C(F)(F)F)c(C(F)(F)F)c1-n1cc(-c2cccc(NC(=O)c3ccncc3F)c2)cn1 [Example 1-004] | 100% | 100% | 100% | 100% | 100% | 100% |  | 100% | 100% | 100% | 100%
Cn1nc(C(F)(F)C(F)(F)F)c(C(F)(F)F)c1-n1cc(-c2cccc(NC(=O)c3ccnc(Cl)c3)c2)cn1 [Example 1-006] | 100% |  | 100% | 100% | 100% | 100% | 100% | 100% | 100% | 100% | 
Cn1cc(C(=O)Nc2cccc(-c3cnn(-c4c(C(F)(F)F)c(C(F)(F)C(F)(F)F)nn4C)c3)c2)cn1 [Example 1-019] |  |  | 100% | 100% | 100% | 100% | 90% | 100% | 100% | 100% | 
Cn1nc(C(F)(F)C(F)(F)F)c(C(F)(F)F)c1-n1cc(-c2ccc(F)c(NC(=O)c3ncccn3)c2)cn1 [Example 1-036] | 100% | 100% | 100% | 100% | 100% | 100% | 100% | 100% | 100% |  | 
CN(C(=O)c1ccc(F)cc1)c1cc(-c2cnn(-c3c(C(F)(F)F)c(C(F)(F)C(F)(F)F)nn3C)c2)ccc1F [Example 1-037] | 100% |  | 100% | 100% | 100% | 90% |  | 100% | 100% |  | 80%
COc1cccc(C(=O)Nc2cc(-c3cnn(-c4c(C(F)(F)F)c(C(F)(F)C(F)(F)F)nn4C)c3)ccc2F)c1 [Example 1-042] |  | 100% | 100% | 100% | 100% |  |  | 100% |  | 100% | 90%
Cn1nc(C(F)(F)C(F)(F)F)c(C(F)(F)F)c1-n1cc(-c2ccc(F)c(NC(=O)c3cccs3)c2)cn1 [Example 1-049] | 100% | 100% | 100% | 100% | 100% | 80% |  |  |  |  | 100%
